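Assay format: 96-well plates, 48-hour exposure. Abbreviation: GI50, concentration required for 50% inhibition of growth.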 Active and inactive are the calls of the source. No stated cut-off is given here; in the data, active = GI50 up to about 1.1 µM and inactive = higher.
What was measured:
Assay in all cases: DTP human tumour cell line panel, 48 h
HCT-15 = test system: HCT-15
OVCAR-8 = test system: OVCAR-8
EKVX = test system: EKVX
OVCAR-5 = test system: OVCAR-5
NCI-H460 = test system: NCI-H460
HL-60 = test system: HL-60
SNB-75 = test system: SNB-75
ACHN = test system: ACHN
MOLT-4 = test system: MOLT-4
OVCAR-4 = test system: OVCAR-4
K562 = test system: K562
SR = test system: SR
U-251 = test system: U-251
UACC-257 = test system: UACC-257
HCC 2998 = test system: HCC 2998
BT-549 = test system: BT-549
DU-145 = test system: DU-145
HCT-116 = test system: HCT-116
CAKI-1 = test system: CAKI-1
LOX IMVI = test system: LOX IMVI
A549 = test system: A549
A498 = test system: A498
SW-620 = test system: SW-620
RPMI-8226 = test system: RPMI-8226
SK-OV-3 = test system: SK-OV-3
SF-539 = test system: SF-539
RXF 393 = test system: RXF 393
UO-31 = test system: UO-31
M14 = test system: M14
SK-MEL-5 = test system: SK-MEL-5
KM12 = test system: KM12
CCRF-CEM = test system: CCRF-CEM
SK-MEL-2 = test system: SK-MEL-2
MDA-N = test system: MDA-N
UACC-62 = test system: UACC-62
HT-29 = test system: HT-29
NCI/ADR-RES = test system: NCI/ADR-RES
MDA-MB-231 = test system: MDA-MB-231
SN12C = test system: SN12C
MDA-MB-435 = test system: MDA-MB-435
Hs-578T = test system: Hs-578T
MCF7 = test system: MCF7
SNB-19 = test system: SNB-19
COLO 205 = test system: COLO 205
T47D = test system: T47D
786-0 = test system: 786-0
TK-10 = test system: TK-10
SK-MEL-28 = test system: SK-MEL-28
Malme-3M = test system: Malme-3M
OVCAR-3 = test system: OVCAR-3
SF-268 = test system: SF-268
NCI-H23 = test system: NCI-H23
HOP-62 = test system: HOP-62
SF-295 = test system: SF-295
NCI-H522 = test system: NCI-H522
IGROV-1 = test system: IGROV-1
HOP-92 = test system: HOP-92
PC-3 = test system: PC-3

With `CN(CCNCc1cn(C)c2c1ccc1ccccc12)CCNCc1cn(C)c2c1ccc1ccccc12` the GI50 (HCT-15) was 1.46 µM, the GI50 (OVCAR-8) was 1.85 µM (inactive) and the GI50 (EKVX) was 1.72 µM (inactive). For the same compound, the GI50 (OVCAR-5) was 1.74 µM (inactive), the GI50 (NCI-H460) was 0.583 µM (active) and the GI50 (HL-60) was 1.06 µM (active). The GI50 (SNB-75) was 1.21 µM (inactive), the GI50 (ACHN) was 1.63 µM (inactive) and the GI50 (MOLT-4) was 1.09 µM (active). The GI50 (OVCAR-4) was 1.33 µM (inactive), the GI50 (K562) was 0.458 µM (active) and the GI50 (SR) was 1.04 µM (active). For the same compound, the GI50 (U-251) was 0.9 µM (active), the GI50 (UACC-257) was 1.55 µM (inactive) and the GI50 (HCC 2998) was 0.301 µM (active). For the same compound, the GI50 (BT-549) was 1.57 µM (inactive), the GI50 (DU-145) was 1.64 µM (inactive) and the GI50 (HCT-116) was 1.45 µM (inactive). The GI50 (CAKI-1) was 1.73 µM (inactive), the GI50 (LOX IMVI) was 1.52 µM (inactive) and the GI50 (A549) was 1.45 µM (inactive). The GI50 (A498) was 0.188 µM (active), the GI50 (SW-620) was 1.35 µM (inactive) and the GI50 (RPMI-8226) was 2.84 µM (inactive). For the same compound, the GI50 (SK-OV-3) was 1.76 µM (inactive), the GI50 (SF-539) was 1.77 µM (inactive) and the GI50 (RXF 393) was 0.499 µM (active). For the same compound, the GI50 (UO-31) was 1.39 µM (inactive), the GI50 (M14) was 0.726 µM (active) and the GI50 (SK-MEL-5) was 1.87 µM (inactive). For the same compound, the GI50 (KM12) was 1.51 µM (inactive), the GI50 (CCRF-CEM) was 0.711 µM (active) and the GI50 (SK-MEL-2) was 1.79 µM (inactive). For the same compound, the GI50 (MDA-N) was 1.77 µM (inactive), the GI50 (UACC-62) was 1.67 µM (inactive) and the GI50 (HT-29) was 1.61 µM (inactive). For the same compound, the GI50 (NCI/ADR-RES) was 1.54 µM (inactive), the GI50 (MDA-MB-231) was 1.79 µM (inactive) and the GI50 (SN12C) was 1.56 µM (inactive). The GI50 (MDA-MB-435) was 1.78 µM (inactive), the GI50 (Hs-578T) was 1.64 µM (inactive) and the GI50 (MCF7) was 0.333 µM (active). The GI50 (SNB-19) was 1.39 µM (inactive), the GI50 (COLO 205) was 0.948 µM (active) and the GI50 (T47D) was 1.86 µM (inactive). For the same compound, the GI50 (786-0) was 0.881 µM (active), the GI50 (TK-10) was 1.64 µM (inactive) and the GI50 (SK-MEL-28) was 1.43 µM (inactive). For the same compound, the GI50 (Malme-3M) was 1.87 µM (inactive), the GI50 (OVCAR-3) was 1.84 µM (inactive) and the GI50 (SF-268) was 1.58 µM (inactive). The GI50 (NCI-H23) was 1.64 µM (inactive), the GI50 (HOP-62) was 1.79 µM (inactive) and the GI50 (SF-295) was 1.79 µM (inactive). For the same compound, the GI50 (NCI-H522) was 1.77 µM (inactive), the GI50 (IGROV-1) was 1.6 µM (inactive) and the GI50 (HOP-92) was 1.6 µM (inactive). The GI50 (PC-3) was 1.47 µM (inactive).
For `O=C1/C(=C\c2cccc(Oc3ccccc3)c2)S(=O)(=O)C(c2ccccc2)N1Cc1ccccc1` (configuration not stated), the GI50 (HCT-15) was 15.6 µM, the GI50 (OVCAR-8) was 17.8 µM (inactive) and the GI50 (EKVX) was 25.8 µM (inactive). For the same compound, the GI50 (OVCAR-5) was 57 µM (inactive), the GI50 (NCI-H460) was 15.1 µM (inactive) and the GI50 (HL-60) was 11.7 µM (inactive). For the same compound, the GI50 (ACHN) was 23 µM (inactive), the GI50 (MOLT-4) was 0.83 µM (active) and the GI50 (K562) was 26 µM (inactive). The GI50 (SR) was 14.9 µM (inactive), the GI50 (U-251) was 33.7 µM (inactive) and the GI50 (UACC-257) was 22.9 µM (inactive). For the same compound, the GI50 (HCC 2998) was 28.7 µM (inactive), the GI50 (BT-549) was 29 µM (inactive) and the GI50 (DU-145) was 33 µM (inactive). For the same compound, the GI50 (HCT-116) was 31 µM (inactive), the GI50 (CAKI-1) was 26.6 µM (inactive) and the GI50 (LOX IMVI) was 25.1 µM (inactive). The GI50 (A549) was 49.2 µM (inactive), the GI50 (A498) was 19.3 µM (inactive) and the GI50 (SW-620) was 40.4 µM (inactive). For the same compound, the GI50 (SK-OV-3) was > 100 µM (inactive), the GI50 (SF-539) was 36.4 µM (inactive) and the GI50 (RXF 393) was 27 µM (inactive). For the same compound, the GI50 (UO-31) was 18.7 µM (inactive), the GI50 (M14) was 27.4 µM (inactive) and the GI50 (SK-MEL-5) was 18.5 µM (inactive). For the same compound, the GI50 (KM12) was 23.1 µM (inactive), the GI50 (CCRF-CEM) was 24.5 µM (inactive) and the GI50 (SK-MEL-2) was 16.3 µM (inactive). The GI50 (MDA-N) was 29.6 µM (inactive), the GI50 (UACC-62) was 19.1 µM (inactive) and the GI50 (NCI/ADR-RES) was 19.4 µM (inactive). For the same compound, the GI50 (MDA-MB-231) was 25.6 µM (inactive), the GI50 (SN12C) was 26.6 µM (inactive) and the GI50 (MDA-MB-435) was 32.3 µM (inactive). The GI50 (Hs-578T) was 13.6 µM (inactive), the GI50 (MCF7) was 39.1 µM (inactive) and the GI50 (SNB-19) was 21.4 µM (inactive). For the same compound, the GI50 (COLO 205) was 27 µM (inactive), the GI50 (T47D) was 32.8 µM (inactive) and the GI50 (786-0) was 19.6 µM (inactive). For the same compound, the GI50 (TK-10) was 33.6 µM (inactive), the GI50 (SK-MEL-28) was 29.8 µM (inactive) and the GI50 (Malme-3M) was 18.4 µM (inactive). For the same compound, the GI50 (OVCAR-3) was 13.8 µM (inactive), the GI50 (NCI-H23) was 28 µM (inactive) and the GI50 (HOP-62) was 26.5 µM (inactive). For the same compound, the GI50 (SF-295) was 55.8 µM (inactive), the GI50 (NCI-H522) was 13.9 µM (inactive) and the GI50 (HOP-92) was 19.3 µM (inactive). The GI50 (PC-3) was 24.7 µM (inactive).
`CCN1CCC(O)(c2ccc(Oc3ccccc3)cc2)C(C(=O)c2ccc(Oc3ccccc3)cc2)C1` (configuration not stated) was tested, and the GI50 (HCT-15) was 12.2 µM, the GI50 (OVCAR-8) was 17.1 µM (inactive) and the GI50 (EKVX) was 16 µM (inactive). The GI50 (OVCAR-5) was 15.4 µM (inactive), the GI50 (NCI-H460) was 3.85 µM (inactive) and the GI50 (HL-60) was 3.75 µM (inactive). For the same compound, the GI50 (SNB-75) was 14.5 µM (inactive), the GI50 (ACHN) was 15.5 µM (inactive) and the GI50 (MOLT-4) was 13 µM (inactive). For the same compound, the GI50 (OVCAR-4) was 10.6 µM (inactive), the GI50 (K562) was 13.7 µM (inactive) and the GI50 (SR) was 5.74 µM (inactive). For the same compound, the GI50 (U-251) was 11.6 µM (inactive), the GI50 (UACC-257) was 12.7 µM (inactive) and the GI50 (HCC 2998) was 6.62 µM (inactive). For the same compound, the GI50 (BT-549) was 10.5 µM (inactive), the GI50 (DU-145) was 14.3 µM (inactive) and the GI50 (HCT-116) was 9.27 µM (inactive). For the same compound, the GI50 (CAKI-1) was 16.4 µM (inactive), the GI50 (LOX IMVI) was 3.84 µM (inactive) and the GI50 (A549) was 13.5 µM (inactive). For the same compound, the GI50 (A498) was 14 µM (inactive), the GI50 (SW-620) was 12.1 µM (inactive) and the GI50 (RPMI-8226) was 2.46 µM (inactive). For the same compound, the GI50 (SF-539) was 8.45 µM (inactive), the GI50 (RXF 393) was 22.2 µM (inactive) and the GI50 (UO-31) was 7.94 µM (inactive). For the same compound, the GI50 (M14) was 11.6 µM (inactive), the GI50 (SK-MEL-5) was 12.5 µM (inactive) and the GI50 (KM12) was 4.85 µM (inactive). For the same compound, the GI50 (CCRF-CEM) was 5.81 µM (inactive), the GI50 (SK-MEL-2) was 15.1 µM (inactive) and the GI50 (MDA-N) was 13.8 µM (inactive). For the same compound, the GI50 (UACC-62) was 13.2 µM (inactive), the GI50 (HT-29) was 6.98 µM (inactive) and the GI50 (NCI/ADR-RES) was 16.2 µM (inactive). For the same compound, the GI50 (MDA-MB-231) was 14.6 µM (inactive), the GI50 (SN12C) was 15.3 µM (inactive) and the GI50 (MDA-MB-435) was 12.9 µM (inactive). The GI50 (Hs-578T) was 23.7 µM (inactive), the GI50 (MCF7) was 3.63 µM (inactive) and the GI50 (SNB-19) was 14.6 µM (inactive). The GI50 (COLO 205) was 13.6 µM (inactive), the GI50 (T47D) was 11.6 µM (inactive) and the GI50 (786-0) was 5.5 µM (inactive). The GI50 (TK-10) was 13.7 µM (inactive), the GI50 (SK-MEL-28) was 13.6 µM (inactive) and the GI50 (Malme-3M) was 17.1 µM (inactive). The GI50 (OVCAR-3) was 14.8 µM (inactive), the GI50 (SF-268) was 16.3 µM (inactive) and the GI50 (NCI-H23) was 13.4 µM (inactive). The GI50 (HOP-62) was 11.9 µM (inactive), the GI50 (SF-295) was 14.2 µM (inactive) and the GI50 (NCI-H522) was 19.6 µM (inactive). The GI50 (IGROV-1) was 15.4 µM (inactive), the GI50 (HOP-92) was 8.87 µM (inactive) and the GI50 (PC-3) was 13 µM (inactive).

— ChEMBL document CHEMBL1201862, “PubChem BioAssay data set” (2004)
